The experiment has as its system Acinetobacter baumannii. The experiment is described as follows: Antimicrobial activity against Acinetobacter baumannii. The class given is functional.

≈ marks a conversion by molar mass, not a printed value.

Among the data in ChEMBL document CHEMBL1671711, “Serum and cerebrospinal fluid levels of colistin in pediatric patients” (Antimicrob Agents Chemother, 2010) are MIC values, retold here.

For the compound `C[C@@H](O)[C@H]1C(=O)N2C(C(=O)O)=C(S[C@@H]3CN[C@H](C(=O)N(C)C)C3)[C@H](C)[C@H]12` [MEROPENEM], the minimal inhibitory concentration (MIC) (usually the lowest concentration found to suppress growth) is 8 µg/mL (≈ 20.9 µM).
